As a reminder, the melting point is the temperature, or range, at which the solid turns liquid.

Structures are written as SMILES.

Regarding `NNC(=S)c1ccc2ccccc2c1`, the melting point fell in the range of 166 to 167 °C.
For `CN1CC(c2cccc(OCc3ccc4ccccc4n3)c2)OC1=O` (centres undefined) the value was 75 to 77 °C.
Compound `COc1cccc2c1C(=O)C(CC=O)C2` (racemic) yielded a melting point of 102 °C.
`CNc1cc(Oc2cccc(C(F)(F)F)c2)nc(C(=O)NC(C)C)c1` had a melting point of 89 to 90 °C.
Regarding `COc1cccc(COc2ccc3c(c2)C=C(C(=O)O)CCS3(=O)=O)c1`, the melting point fell in the range of 220 to 222 °C.
Consider `O=C(O)C/C=C/CC(=O)O`, for which the melting point was in the range of 197 to 198 °C.
The compound `CCNC(=O)c1cccc(F)c1[Si](C)(C)C` returned a melting point of 80 to 82 °C.
`N#Cc1ccc([C@H]2CC[C@H](CO)CC2)cc1` registered a melting point of 108 °C.
Consider `CN(C)Cc1cc(C(=O)c2ccccc2)cc(C(C)(C)C)c1O`, for which the melting point worked out at 129 °C.
Compound `CC(C)N(CCC(CC(=O)N1CCCCC1)(C(=O)N(C)C)c1ccccc1)C(C)C` (centres undefined) had a melting point of 142 to 145 °C.
Next, `Cc1cc(Br)cc(C)c1N([Si](C)(C)C)[Si](C)(C)C`: 47 to 52 °C.
Next, `CN(C)C(=O)C(C)(C)n1ccc(-c2ccccc2)n1`: 99.5 to 102 °C; `O=C(O)COc1cccc(-c2c3ccccc3c(Br)c3sc4ccccc4c23)c1`: 180 to 181 °C; `COc1cc(C=C2C(=O)CCc3ccc([N+](=O)[O-])cc32)c([N+](=O)[O-])cc1OC`: 125 °C.
`NCCc1c[nH]c2cc3c(cc12)C(=O)NCC3` displayed a melting point of 82 to 86 °C.
For `COCCOc1cc(N(C)S(=O)(=O)c2ccccn2)c2[nH]c(C3=NCC(CC(=O)O)S3)cc2c1` (centres undefined) the value was 107 to 109 °C.
`CCOC(=O)c1cc2cc3c(cc2oc1=O)OCO3` displayed a melting point of 200 to 201 °C.
For `Cc1cccc2c(=O)n(C3CCC(=O)NC3=O)c(C)nc12` (centres undefined), the melting point fell in the range of 296 to 298 °C.
For `CC(C)C(N)CN1CCC(Nc2nc3ccccc3[nH]2)CC1` (centres undefined) the value was 138 °C; for `C[C@@H](c1ccc(F)cc1)N1CCN(c2cc(Oc3cccc4[nH]c(=O)c(N)nc34)ncn2)CC1`, 294 to 295 °C.
Turning to `O=C1c2ccccc2-c2c1c1ccccc1c(=O)n2CCCCO`, the melting point fell in the range of 165 to 166 °C.
In the case of `COc1cc2c(cc1O)CCN(Cc1cc(F)cc(F)c1)C2`, the melting point is 110 to 111 °C.
In turn, `Cc1cc(-n2ncc(=O)[nH]c2=O)cc(Cl)c1Oc1ccc(O)c(S(=O)(=O)c2ccccc2)c1` had a melting point of 78 to 81 °C.
`CCCCCCCCCCCCNC(=O)c1cc(Br)c(OCCn2cnnn2)c(-c2cccc(OC)c2)c1` showed a melting point of 100 to 101 °C.
Take `COc1c(C(C)C)cc(S(N)(=O)=O)c(C)c1C(=O)NCC1CCCN1CC1CC1` (centres undefined): the melting point came to 125 °C.
In turn, `COc1cc(OC)c2c(=O)c(OCCOc3ccc(C(C)=O)cc3)c(-c3ccc(OC)c(OC)c3)oc2c1` came in with a melting point of 143 to 144 °C.
Compound `O=C(O)c1cccc2c1CCc1ccccc1S2` came in with a melting point of 186 to 187 °C.
Next, `Cc1ccc(S(=O)(=O)N2Cc3cnc(C)n3-c3ccc(Cl)cc3C2c2ccccc2F)cc1` (centres undefined): 152 to 153 °C.
`C=CCN1CCN(c2nc3cccccc-3n2)CC1`: the melting point was in the range of 108 to 111 °C.
Turning to `CC1(C)CC(=O)C(C(=S)Nc2ccc(Cl)c(C(F)(F)F)c2)C(=O)C1`, the melting point was 101 to 102 °C.
For the compound `CN1C(=O)CC[C@]2(C)c3ccc(-c4ccc(F)c(Cl)c4)cc3CC[C@@H]12`, the melting point fell in the range of 114 to 116 °C.
Consider `CCOC(=O)C(=O)Nc1c([N+](=O)[O-])sc2ccc([N+](=O)[O-])cc12`, for which the melting point was in the range of 178 to 183 °C.
Next, `C(=C\c1nc(COc2ccc(CCCn3ccnc3)cn2)co1)/c1ccccc1`: 120 to 121 °C.
`O=C(O)c1ccc2c(=O)n3nc(C(=O)O)ccc3nc2c1` registered a melting point of over 360 °C.
`c1cc(-c2cnn3cc(-c4ccc(OCCN5CCCCC5)cc4)cnc23)cs1` came in with a melting point of 141 to 143 °C.
Next, `O=C(O)c1ccc2c(c1)CCc1c(Cl)cccc1C2=O`: 258 to 260 °C; `Cc1oc(-c2ccccc2)nc1COc1ccc(COc2ncccc2CO)cc1`: 139 to 140 °C.
Compound `CCOC(=O)/C=C/c1ccc(OCCC2(C)OCCO2)cc1Oc1ncc(C(F)(F)F)cc1Cl` displayed a melting point of 90 to 91 °C.
Turning to `CCc1ncc(CCCOc2c(C)cc(C#N)cc2C)s1`, the melting point is 52 to 53 °C.
For `CCCCCCCCCCC[C@H](CC(=O)N[C@@H](CO)CCCNC(=O)OCc1ccccc1)OCc1ccccc1` the value was 118 °C.
Regarding `CC1(C)CC(N2CCN(Cc3ccccc3)C2=O)c2cc(C#N)ccc2O1` (centres undefined), the melting point was in the range of 45 to 48 °C.
For the compound `CC1CN(Cc2ccc(Cl)nc2)C(=C[N+](=O)[O-])N1` (centres undefined), the melting point was in the range of 170 to 174 °C.
`Cc1ccc(S(=O)(=O)N2CCC[C@H]2C(=O)N[C@@H](Cc2ccc(OCCCN(C)Cc3ccccc3)cc2)C(=O)O)cc1`: the melting point was 87 to 90 °C.
Next, `O=C(COc1noc(-c2ccccc2)c1Cl)NCCO[N+](=O)[O-]`: 138 to 139 °C; `Cc1nn(-c2ccccn2)c2nc3ccccc3c(C#N)c12`: 210 to 211 °C; `N#Cc1cc(F)c2ncc(C(=O)NCc3ccc(Cl)cc3)c(O)c2c1`: over 300 °C.
In turn, `OC1CCNc2ncc(Br)cc21` (centres undefined) showed a melting point of 125 to 128 °C.
Regarding `COc1ccccc1NC(=O)c1ccc(CN2CCOCC2)cc1`, the melting point was 90 to 93.5 °C.
For the compound `CC(=O)OC1CSC(Oc2cccnc2-c2ccc(F)cc2)C(OC(C)=O)C1OC(C)=O` (centres undefined), the melting point was 149 °C.
Take `FC(F)(F)c1cccc(Sc2cc(Br)nc(Br)c2)c1`: the melting point was 68 to 70 °C.
`O=c1cc2c(nn1-c1ccc(Cl)cc1)-c1cccnc1CC2` displayed a melting point of 166 to 167 °C.
`O=S(=O)(c1ccccc1)n1c(-c2cccc(C(O)c3cc4ccccc4n3S(=O)(=O)c3ccccc3)c2)cc2ccccc21` (centres undefined) showed a melting point of 81 to 83 °C.
On to `CN(C)C(=O)c1ccccc1[N+](=O)[O-]`, for which the melting point lay within 74 to 76 °C.
Next, `CC(C)(C)c1ccc(NC(=O)c2ccccc2SSc2ccccc2C(=O)Nc2ccc(C(C)(C)C)cc2)cc1`: 135 to 138 °C; `N#Cc1ccc(C=Cc2ccccc2)cc1`: 119 °C; `CC1(C)Cc2cc(Cl)cc(Cl)c2C=[N+]1[O-]`: 92 to 94 °C.
Turning to `CCOCc1oc(-c2ccc(C(F)(F)F)cc2)cc1C(=O)OCC`, the melting point lay in the range of 103 to 105 °C.
As to `COc1ccc(C2=NN(Cc3ccc(OCCCCBr)cc3)C(=O)[C@@H]3CC=CC[C@H]23)cc1OC`, the melting point is 42 to 46 °C.
Compound `CC1(C)Cc2sc3c(c2C1)CCC3=O` gave a melting point of 60 to 62 °C.
Regarding `COc1ccc(CO)cc1OCc1nc(-c2ccco2)oc1C`, the melting point was 145 to 146 °C.
Next, `Cc1cccc(Nc2cc(-c3c(-c4cccc(C)c4)nc4cccnn34)ccn2)c1`: 195 to 196 °C.
In turn, `COc1cc(OC)c(/C=C/C(=O)Nc2ccc(OC)c(N)c2)c(OC)c1` came in with a melting point of 92 to 94 °C.
`COc1cc(O)c(C(=O)C=Cc2ccc(SC)cc2)c(OC)c1` showed a melting point of 135 °C.
In the case of `N#Cc1ccc(OCc2ccncc2)cc1F`, the melting point is 132 to 133 °C.

The record behind these values is a melting point compilation (Tetko et al.; mined from patent text by program, amines drawn as free bases though some values may be those of a salt).
